Data reported in patent publication US20260102359A1, “COMBINATION TREATMENT OF DERMAL AND TRANSDERMAL FIBROTIC DISEASES, DISORDERS AND ASSOCIATED PAIN AND INFLAMMATION” (ERESINA, LLC, priority 2022, published 2026).
Where a name gives a salt, the structure may show the parent alone. Read-outs that look alike come from different tables or passages of the source. *1 amine or outer side, *2 acyl side, *3 side chain or, on linkers, in order; H or OH if unused. Where a SMILES comes first, the peptide text is derived from it. Bridges are numbered along the chain shown (N, C = ends). [ ]: non-standard residue; d: D form. The star is where a group is joined. pTerphenylCO(4''-OnC5H11) = CCCCCOc1ccc(-c2ccc(-c3ccc(C(=O)*)cc3)cc2)cc1; Orn(4R-OH,5R-OH) = O=C([C@H](C[C@@H](O)[C@@H](O)N[*:3])N[*:1])[*:2]; hTyr(3S-OH,4S-OH) = N[C@H](C(=O)O)[C@H](O)[C@@H](O)c1ccc(O)cc1; Pro(3S-OH,4S-Me) = C[C@H]1CN[C@H](C(=O)O)[C@H]1O; Hyp = O=C(O)[C@@H]1C[C@@H](O)CN1

Assays:
[1] = tested on: hDMFa myofibroblast cells; test: Myofibroblast cytotoxicity, MTS cell viability assay; settings: serum-free media with inhibitor 8-12 hours, MTS cell viability, inhibition normalized as percentage of negative control
[2] = tested on: hDMFa myofibroblast cells

OCCCCCCCCO [Cmpd 38, 1,8-Octanediol]
Compound Myofibroblast Cytotoxicity Activity [1]: +

Cc1cc(O)cc(C(C)C)c1 [Cmpd 53]
Compound Myofibroblast Cytotoxicity Activity [1]: +

CCCCCOc1ccc(-c2ccc(-c3ccc(C(=O)N[C@H]4C[C@@H](O)[C@@H](O)NC(=O)[C@@H]5[C@@H](O)[C@@H](C)CN5C(=O)[C@H]([C@@H](C)O)NC(=O)[C@H]([C@H](O)[C@@H](O)c5ccc(O)cc5)NC(=O)[C@@H]5C[C@@H](O)CN5C(=O)[C@H]([C@@H](C)O)NC4=O)cc3)cc2)cc1 [Cmpd 124, Anidulafungin] ({pTerphenylCO(4''-OnC5H11)}-[Orn(4R-OH,5R-OH)]T[Hyp][hTyr(3S-OH,4S-OH)]T[Pro(3S-OH,4S-Me)]; lactam 1-C)
Compound Myofibroblast Cytotoxicity Activity [1]: +++++

C[C@H]1[C@H](C)CC[C@]2(C(=O)O)CC[C@]3(C)C(=CC[C@@H]4[C@@]5(C)C[C@@H](O)[C@H](O)[C@@](C)(CO)[C@@H]5CC[C@]43C)[C@H]12 [Cmpd 135, Asiatic acid]
Compound Myofibroblast Cytotoxicity Activity [1]: +++++

CC1=C(C(=O)OC(C)C)C(c2cccc([N+](=O)[O-])c2)C(C(=O)OC2CN(C(c3ccccc3)c3ccccc3)C2)=C(N)N1 (stereo not shown) [Cmpd 148, Azelnidipine]
Compound Myofibroblast Cytotoxicity Activity [1]: +++++

COC(=O)OCOc1c2n(ccc1=O)N([C@@H]1c3ccccc3SCc3c1ccc(F)c3F)[C@@H]1COCCN1C2=O [Cmpd 155, Baloxavir marboxil]
Compound Myofibroblast Cytotoxicity Activity [1]: +++++

Cc1ccc([C@@H]2O[C@H](CO)[C@@H](O)[C@H](O)[C@H]2O)cc1Cc1ccc(-c2ccc(F)cc2)s1 [Cmpd 208, Canagliflozin]
Compound Myofibroblast Cytotoxicity Activity [1]: +++++

COc1ccc2cc1Oc1ccc(cc1)C[C@H]1c3cc(c(OC)cc3CCN1C)Oc1c(OC)c(OC)cc3c1[C@H](C2)N(C)CC3 [Cmpd 936, Tetrandrine]
Compound Myofibroblast Cytotoxicity Activity [2]: ++

Cc1cnc(Nc2ccc(OCCN3CCCC3)cc2)nc1Nc1cccc(S(=O)(=O)NC(C)(C)C)c1 [Cmpd 937, TG101348 (SAR302503)]
Compound Myofibroblast Cytotoxicity Activity [2]: ++++

Cc1ncc(C[n+]2csc(CCO)c2C)c(N)n1.Cl.[Cl-] [Cmpd 939, Thiamine HCl (Vitamin B1)]
Compound Myofibroblast Cytotoxicity Activity [2]: ++

CSc1ccc2c(c1)N(CCC1CCCCN1C)c1ccccc1S2 (stereo not shown) [Cmpd 940, Thioridazine HCl]
Compound Myofibroblast Cytotoxicity Activity [2]: ++++

Cc1cn([C@H]2C[C@H](O)[C@@H](CO)O2)c(=O)[nH]c1=O [Cmpd 943, Thymidine]
Compound Myofibroblast Cytotoxicity Activity [2]: ++

O=c1sn(-c2cccc3ccccc23)c(=O)n1Cc1ccccc1 [Cmpd 946, Tideglusib]
Compound Myofibroblast Cytotoxicity Activity [2]: ++

Clc1ccc(C(Cn2ccnc2)OCc2ccsc2Cl)c(Cl)c1 (stereo not shown) [Cmpd 947, Tioconazole]
Compound Myofibroblast Cytotoxicity Activity [2]: +++

Nc1n[n+]([O-])c2ccccc2[n+]1[O-] [Cmpd 948, Tirapazamine]
Compound Myofibroblast Cytotoxicity Activity [2]: ++++

O=C(O)Cc1cc(I)c(Oc2ccc(O)c(I)c2)c(I)c1 [Cmpd 949, Tiratricol]
Compound Myofibroblast Cytotoxicity Activity [2]: +++

O=C1NC(=O)[C@@H](c2cn3c4c(cccc24)CCC3)[C@@H]1c1c[nH]c2ccccc12 [Cmpd 950, Tivantinib (ARQ 197)]
Compound Myofibroblast Cytotoxicity Activity [2]: ++

Cc1ccc(S(=O)(=O)NC(=O)NN2CCCCCC2)cc1 [Cmpd 953, Tolazamide]
Compound Myofibroblast Cytotoxicity Activity [2]: ++++

Cc1c(Cl)cccc1Nc1ccccc1C(=O)O [Cmpd 955, Tolfenamic Acid]
Compound Myofibroblast Cytotoxicity Activity [2]: ++

Cc1cccc(N(C)C(=S)Oc2ccc3ccccc3c2)c1 [Cmpd 956, Tolnaftate]
Compound Myofibroblast Cytotoxicity Activity [2]: ++++

CN(C)CCOc1ccc(/C(=C(/CCCl)c2ccccc2)c2ccccc2)cc1 [Cmpd 959, Toremifene Citrate]
Compound Myofibroblast Cytotoxicity Activity [2]: +++

NCCCS(=O)(=O)O [Cmpd 961, Tramiprosate]
Compound Myofibroblast Cytotoxicity Activity [2]: +++++

C/C=C/c1ccc(OC)cc1 [Cmpd 963, Trans-Anethole]
Compound Myofibroblast Cytotoxicity Activity [2]: ++

Cl.N[C@@H]1C[C@H]1c1ccccc1 [Cmpd 964, Tranylcypromine hydrochloride]
Compound Myofibroblast Cytotoxicity Activity [2]: ++++

CC1(C)CC(=O)CC(C)(C)N1 [Cmpd 967, Triacetonamine]
Compound Myofibroblast Cytotoxicity Activity [2]: ++

N[C@@H](Cc1cc(I)c(Oc2ccc(O)c(I)c2)c(I)c1)C(=O)O [Cmpd 972, Triiodothyronine]
Compound Myofibroblast Cytotoxicity Activity [2]: ++

C[C@]12CC[C@H]3[C@@H](CC[C@@]45O[C@@H]4C(O)=C(C#N)C[C@]35C)[C@@H]1CC[C@@H]2O [Cmpd 973, Trilostane]
Compound Myofibroblast Cytotoxicity Activity [2]: ++

COc1cc(C(=O)NCc2ccc(OCCN(C)C)cc2)cc(OC)c1OC.Cl [Cmpd 974, Trimethobenzamide hydrochloride]
Compound Myofibroblast Cytotoxicity Activity [2]: ++

CC(CN(C)C)CN1c2ccccc2CCc2ccccc21.O=C(O)/C=C\C(=O)O (stereo not shown) [Cmpd 975, Trimipramine (maleate)]
Compound Myofibroblast Cytotoxicity Activity [2]: ++

Cc1c(C)c2c(c(C)c1O)CCC(C)(COc1ccc(CC3SC(=O)NC3=O)cc1)O2 (stereo not shown) [Cmpd 976, Troglitazone]
Compound Myofibroblast Cytotoxicity Activity [2]: +++

Cc1[nH]c(/C=C2\C(=O)Nc3ccccc32)c(C)c1CCC(=O)O [Cmpd 979, TSU-68 (SU6668, Orantinib)]
Compound Myofibroblast Cytotoxicity Activity [2]: ++
